How the values were obtained:
Assay type in all cases: in vivo
[1] = tested on: Indian mallow; test: Test Example 3: weedkilling efficacy through soil treatment; K: Indian mallow; conditions: soil treatment, treatment dosage 315 g/ha
Method in brief: (§1)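 Crop and weed responses were judged three weeks after a uniform surface spray of the water-diluted emulsion at the given g/ha rate. Seeds sat beneath about 1.5 cm of sterilized diluvial soil, and boxes stood in a greenhouse at 25 to 30° C.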

[2] = tested on: chickweed; test: Test Example 3: weedkilling efficacy through soil treatment; N: chickweed; conditions: soil treatment, treatment dosage 315 g/ha
Method in brief: as §1

[3] = tested on: barnyard grass; test: Test Example 1: weedkilling efficacy, preemergent weed treatment in the submerged state; A: barnyard grass; conditions: treatment dosage 252 g/ha
Method in brief: (§2)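 Pots of alluvial soil were flooded to a 4 cm depth. Mixed weed seeds were sown and 2.5 leaf-stage rice seedlings transplanted. On sowing day, water-diluted emulsion was applied to the water surface (dose in g/ha). After 3 weeks at 25–30 °C, effects were rated.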

[4] = tested on: fig-leafed goosefoot; test: Test Example 3: weedkilling efficacy through soil treatment; M: fig-leafed goosefoot; conditions: soil treatment, treatment dosage 315 g/ha
Method in brief: as §1

[5] = tested on: barnyard grass; test: Test Example 2: weedkilling efficacy, growth period weed treatment in the submerged state; A: barnyard grass; conditions: treatment dosage 252 g/ha
Method in brief: (§3)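 Weeds treated at the 1-2 leaf stage by application of diluted emulsion onto floodwater (4 cm depth, alluvial soil) at specified g/ha. Grown in greenhouse at 25 to 30° C; herbicidal effect rated three weeks after treatment.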

[6] = tested on: bulrush; test: Test Example 2: weedkilling efficacy, growth period weed treatment in the submerged state; B: bulrush; conditions: treatment dosage 252 g/ha
Method in brief: as §3

[7] = tested on: wild oat; test: Test Example 3: weedkilling efficacy through soil treatment; G: wild oat; conditions: soil treatment, treatment dosage 315 g/ha
Method in brief: as §1

[8] = tested on: wheat; test: Test Example 3: soil treatment, effect on crop; e: wheat; conditions: soil treatment, treatment dosage 315 g/ha
Method in brief: as §1

[9] = tested on: beet; test: Test Example 3: soil treatment, effect on crop; f: beet; conditions: soil treatment, treatment dosage 315 g/ha
Method in brief: as §1

[10] = tested on: oval-leafed pondweed; test: Test Example 1: weedkilling efficacy, preemergent weed treatment in the submerged state; C: oval-leafed pondweed; conditions: treatment dosage 252 g/ha
Method in brief: as §2

[11] = tested on: redroot pigweed; test: Test Example 3: weedkilling efficacy through soil treatment; L: redroot pigweed; conditions: soil treatment, treatment dosage 315 g/ha
Method in brief: as §1

[12] = tested on: directly sown rice; test: Test Example 3: soil treatment, effect on crop; b: directly sown rice; conditions: soil treatment, treatment dosage 315 g/ha
Method in brief: as §1

[13] = tested on: soybean; test: Test Example 3: soil treatment, effect on crop; d: soybean; conditions: soil treatment, treatment dosage 315 g/ha
Method in brief: as §1

[14] = tested on: transplanted rice; test: Test Example 1: preemergent weed treatment in the submerged state, effect on crop; a: transplanted rice; conditions: treatment dosage 252 g/ha
Method in brief: as §2

[15] = tested on: corn; test: Test Example 3: soil treatment, effect on crop; c: corn; conditions: soil treatment, treatment dosage 315 g/ha
Method in brief: as §1

[16] = tested on: black-grass; test: Test Example 3: weedkilling efficacy through soil treatment; H: black-grass; conditions: soil treatment, treatment dosage 315 g/ha
Method in brief: as §1

[17] = tested on: Italian ryegrass; test: Test Example 3: weedkilling efficacy through soil treatment; I: Italian ryegrass; conditions: soil treatment, treatment dosage 315 g/ha
Method in brief: as §1

[18] = tested on: crabgrass; test: Test Example 3: weedkilling efficacy through soil treatment; D: crabgrass; conditions: soil treatment, treatment dosage 315 g/ha
Method in brief: as §1

[19] = tested on: birds-eye speedwell; test: Test Example 3: weedkilling efficacy through soil treatment; p: birds-eye speedwell; conditions: soil treatment, treatment dosage 315 g/ha
Source text: (§4) Weedkilling Efficacy Test Through Soil Treatment
(§5) Sterilized diluvial soil was introduced into 21 cm long, 13 cm wide, 7 cm deep plastic boxes, and seeds of crabgrass, green foxtail, barnyard grass, wild oat, black-grass, Italian ryegrass, common wind-grass, Indian mallow, redroot pigweed, fig-leafed goosefoot, chickweed, catchweed, birds-eye speedwell, corn, soybean, rice, wheat, beet and rapeseed were each spot-sown, and covered with about 1.5 cm of soil. Next, emulsions of compounds of the present invention prepared according to compounding example 2 were diluted with water to give the specified dosages, and applied uniformly onto the soil surface with a small sprayer. The plants were grown by placing the plastic boxes in a greenhouse at 25 to 30° C., and 3 weeks after the pesticide treatment the effect on each type of plant was investigated on the basis of the assessment criteria of test example 1.
(§6) A: barnyard grass, B: bulrush, C: oval-leafed pondweed, D: crabgrass, E: green foxtail, F: barnyard grass, G: wild oat, H: black-grass, I: Italian ryegrass, J: common wind-grass, K: Indian mallow, L: redroot pigweed, M: fig-leafed goosefoot, N: chickweed, O: catchweed, p: birds-eye speedwell, a: transplanted rice, b: directly sown rice, c: corn, d: soybean, e: wheat, f: beet, g: rapeseed
(§7) Further, pesticide dosage (g/ha) indicates the concentration regulated such that treatment was with only the stated number of grams (g), when calculated per hectare (ha).

[20] = tested on: oval-leafed pondweed; test: Test Example 2: weedkilling efficacy, growth period weed treatment in the submerged state; C: oval-leafed pondweed; conditions: treatment dosage 252 g/ha
Method in brief: as §3

[21] = tested on: green foxtail; test: Test Example 3: weedkilling efficacy through soil treatment; E: green foxtail; conditions: soil treatment, treatment dosage 315 g/ha
Method in brief: as §1

[22] = tested on: bulrush; test: Test Example 1: weedkilling efficacy, preemergent weed treatment in the submerged state; B: bulrush; conditions: treatment dosage 252 g/ha
Method in brief: as §2

[23] = tested on: catchweed; test: Test Example 3: weedkilling efficacy through soil treatment; O: catchweed; conditions: soil treatment, treatment dosage 315 g/ha
Source text: as §4, §5, §6, §7

Compound	K: Indian mallow, weedkilling efficacy grade [1]	N: chickweed, weedkilling efficacy grade [2]	A: barnyard grass, weed kill grade [3]	M: fig-leafed goosefoot, weedkilling efficacy grade [4]	A (barnyard grass) weedkilling efficacy grade [5]	B (bulrush) weedkilling efficacy grade [6]	G: wild oat, weedkilling efficacy grade [7]	e: wheat, effect on crop grade [8]	f: beet, effect on crop grade [9]	C: oval-leafed pondweed, weed kill grade [10]	L: redroot pigweed, weedkilling efficacy grade [11]	b: directly sown rice, effect on crop grade [12]	d: soybean, effect on crop grade [13]	a: transplanted rice, effect on crop grade [14]	c: corn, effect on crop grade [15]	H: black-grass, weedkilling efficacy grade [16]	I: Italian ryegrass, weedkilling efficacy grade [17]	D: crabgrass, weedkilling efficacy grade [18]	P: birds-eye speedwell, weedkilling efficacy grade [19]	C (oval-leafed pondweed) weedkilling efficacy grade [20]	also measured
CC(C)(C(=O)Nc1cc(F)ccn1)N1COCN(c2ccccc2)C1=O [A-2-03]	0 (weed kill ratio 5% or less (practically no effect))	4 (weed kill ratio 70% or more, less than 90%)	5 (weed kill ratio 90% or more, (practically complete withering))	4 (weed kill ratio 70% or more, less than 90%)	5 (weed kill ratio 90% or more, (practically complete withering))	5 (weed kill ratio 90% or more, (practically complete withering))	5 (weed kill ratio 90% or more, (practically complete withering))	2 (weed kill ratio 20% or more, less than 40%)	0 (weed kill ratio 5% or less (practically no effect))	5 (weed kill ratio 90% or more, (practically complete withering))	4 (weed kill ratio 70% or more, less than 90%)	5 (weed kill ratio 90% or more, (practically complete withering))	0 (weed kill ratio 5% or less (practically no effect))	1 (weed kill ratio 5% or more, less than 20%)	3 (weed kill ratio 40% or more, less than 70%)	5 (weed kill ratio 90% or more, (practically complete withering))	5 (weed kill ratio 90% or more, (practically complete withering))	5 (weed kill ratio 90% or more, (practically complete withering))	5 (weed kill ratio 90% or more, (practically complete withering))	3 (weed kill ratio 40% or more, less than 70%)	E: green foxtail, weedkilling efficacy grade [21]: 5 (weed kill ratio 90% or more, (practically complete withering)); B: bulrush, weed kill grade [22]: 5 (weed kill ratio 90% or more, (practically complete withering)); O: catchweed, weedkilling efficacy grade [23]: 5 (weed kill ratio 90% or more, (practically complete withering))
CC(C)(C(=O)Nc1cc(Cl)ccn1)N1COCN(c2ccccc2)C1=O [A-2-06]	4 (weed kill ratio 70% or more, less than 90%)	4 (weed kill ratio 70% or more, less than 90%)	5 (weed kill ratio 90% or more, (practically complete withering))	4 (weed kill ratio 70% or more, less than 90%)	5 (weed kill ratio 90% or more, (practically complete withering))	5 (weed kill ratio 90% or more, (practically complete withering))	5 (weed kill ratio 90% or more, (practically complete withering))	1 (weed kill ratio 5% or more, less than 20%)	4 (weed kill ratio 70% or more, less than 90%)	5 (weed kill ratio 90% or more, (practically complete withering))	5 (weed kill ratio 90% or more, (practically complete withering))	5 (weed kill ratio 90% or more, (practically complete withering))	3 (weed kill ratio 40% or more, less than 70%)	4 (weed kill ratio 70% or more, less than 90%)	3 (weed kill ratio 40% or more, less than 70%)	5 (weed kill ratio 90% or more, (practically complete withering))	5 (weed kill ratio 90% or more, (practically complete withering))	5 (weed kill ratio 90% or more, (practically complete withering))	5 (weed kill ratio 90% or more, (practically complete withering))	5 (weed kill ratio 90% or more, (practically complete withering))	E: green foxtail, weedkilling efficacy grade [21]: 5 (weed kill ratio 90% or more, (practically complete withering)); B: bulrush, weed kill grade [22]: 5 (weed kill ratio 90% or more, (practically complete withering))
CC(C)(C(=O)Nc1cccc(Br)n1)N1COCN(c2ccccc2)C1=O [A-2-09]	3 (weed kill ratio 40% or more, less than 70%)	4 (weed kill ratio 70% or more, less than 90%)	5 (weed kill ratio 90% or more, (practically complete withering))	4 (weed kill ratio 70% or more, less than 90%)	5 (weed kill ratio 90% or more, (practically complete withering))	5 (weed kill ratio 90% or more, (practically complete withering))	5 (weed kill ratio 90% or more, (practically complete withering))	1 (weed kill ratio 5% or more, less than 20%)	4 (weed kill ratio 70% or more, less than 90%)	5 (weed kill ratio 90% or more, (practically complete withering))	5 (weed kill ratio 90% or more, (practically complete withering))	5 (weed kill ratio 90% or more, (practically complete withering))	3 (weed kill ratio 40% or more, less than 70%)	0 (weed kill ratio 5% or less (practically no effect))	3 (weed kill ratio 40% or more, less than 70%)	5 (weed kill ratio 90% or more, (practically complete withering))	5 (weed kill ratio 90% or more, (practically complete withering))	5 (weed kill ratio 90% or more, (practically complete withering))	5 (weed kill ratio 90% or more, (practically complete withering))	5 (weed kill ratio 90% or more, (practically complete withering))	E: green foxtail, weedkilling efficacy grade [21]: 5 (weed kill ratio 90% or more, (practically complete withering)); B: bulrush, weed kill grade [22]: 5 (weed kill ratio 90% or more, (practically complete withering))

Reference: US9738634B2, “Heterocyclic amide compound and herbicide” (SYNGENTA PARTICIPATIONS AG, priority 2013, dated 2017)
